{
  "source": "PubChem BioAssay AID1996",
  "data": [
    {"settings": "buffer; pH 7.4; 200.0 µM", "units": {"solubility kinetic": "µg/mL"}, "values": [
      {"smiles": "O=C(OC1CCOC1=O)c1cc(Cl)ccc1[N+](=O)[O-]", "note": "(centres undefined)", "solubility kinetic": 42.1},
      {"smiles": "Cc1cccc(C)c1NC(=O)c1c[nH]c2ccccc12", "solubility kinetic": "> 39.6"},
      {"smiles": "O=C(C1CC1)N1CCN(c2ccc(O)cc2)CC1", "solubility kinetic": "> 36.9"},
      {"smiles": "O=C(CN1C(=O)C2C3CCC(C3)C2C1=O)OCC(=O)c1ccc(Br)cc1", "note": "(centres undefined)", "solubility kinetic": "> 63"},
      {"smiles": "COc1ccc(NC(=O)CCN2C(=O)[C@@H]3[C@H](C2=O)[C@H]2C=C[C@@H]3C2)cc1", "solubility kinetic": 46.7},
      {"smiles": "CSc1ncccc1C(=O)OCC(=O)Nc1ccc(N2CCOCC2)cc1", "solubility kinetic": 10.6},
      {"smiles": "O=C(O)c1ccc(S(=O)(=O)N(Cc2ccccc2)Cc2ccccc2)cc1", "solubility kinetic": 19.5},
      {"smiles": "CC(C)CNC1CS(=O)(=O)CC1O.Cl", "note": "(centres undefined)", "solubility kinetic": "> 36.6"},
      {"smiles": "COc1cccc(NC(=O)C2=COCCO2)c1", "solubility kinetic": "> 35.3"},
      {"smiles": "CCCCN(C(=O)C1CCC1)c1c(N)n(CCC)c(=O)[nH]c1=O", "solubility kinetic": "> 48.4"},
      {"smiles": "COC(=O)c1ccsc1NC(=O)c1cccc(OC)c1", "solubility kinetic": 1.4},
      {"smiles": "CCc1ccc(S(=O)(=O)Nc2ccc(Br)cn2)cc1", "solubility kinetic": 18.1},
      {"smiles": "O=C(CN1CCN(c2ccc(F)cc2)CC1)Nc1ccccc1", "solubility kinetic": "> 47"},
      {"smiles": "Cc1ccc(CNc2ncnc3cc(Cl)ccc23)cc1", "solubility kinetic": 5},
      {"smiles": "COc1ccc(N2C(=O)C(F)(F)C2c2cccc(F)c2)cc1", "note": "(centres undefined)", "solubility kinetic": "< 0.7"},
      {"smiles": "CC(NC(=O)COC(=O)c1ccc2ccccc2n1)c1ccccc1", "note": "(centres undefined)", "solubility kinetic": 5.3},
      {"smiles": "O=C(NCc1ccncc1)c1cncc(Br)c1", "solubility kinetic": "> 43.8"},
      {"smiles": "Cl.O=C(Cc1ccccc1)NCCN1CCCC1", "solubility kinetic": "> 40.3"},
      {"smiles": "Cc1onc(-c2c(F)cccc2Cl)c1C(=O)c1ccc(F)cc1", "solubility kinetic": 9.1},
      {"smiles": "Cc1csc(SCC(=O)Nc2nncs2)n1", "solubility kinetic": "> 40.9"},
      {"smiles": "Cn1cccc1C(=O)OCC(=O)Nc1ccc2c(c1)OCCO2", "solubility kinetic": 4.8},
      {"smiles": "CN(C(=O)C(Cl)Cl)C1CC2C=CC1C2", "note": "(centres undefined)", "solubility kinetic": 30.7},
      {"smiles": "O=C(Cc1ccc(Cl)cc1)NC1CCS(=O)(=O)C1", "note": "(centres undefined)", "solubility kinetic": "> 43.2"},
      {"smiles": "O=C(NC1CCCc2ccccc21)c1ccccn1", "note": "(centres undefined)", "solubility kinetic": 35.9},
      {"smiles": "Cc1cc(C)c(N=C2SCC(=O)N2Cc2ccco2)c(C)c1", "solubility kinetic": 11.5},
      {"smiles": "CCCCNC(=O)CSc1nc(CCC)nc2ccccc12", "solubility kinetic": 4},
      {"smiles": "CC(=O)Nc1nc(-c2ccc3c(c2)CC(C)N3C(=O)C2CC2)c(C)s1", "note": "(centres undefined)", "solubility kinetic": 35},
      {"smiles": "N#Cc1c(N)nc2c(c1-c1ccc(F)cc1)CCC2", "solubility kinetic": 3.7},
      {"smiles": "O=C(/C=C/c1ccc(Br)o1)Nc1nccs1", "solubility kinetic": 4.3},
      {"smiles": "CCn1c(/C=C/c2ccccc2C)nc2ccccc2c1=O", "solubility kinetic": 3.3},
      {"smiles": "Cc1ccc(S(=O)(=O)N2CCN(Cc3ccco3)CC2)cc1C", "solubility kinetic": 13.1},
      {"smiles": "COc1cc(OC)cc(C(=O)N[C@H](C(=O)OCC(=O)c2c[nH]c3ccccc23)C(C)C)c1", "solubility kinetic": 3.8},
      {"smiles": "CNC(=S)N(CCc1c(C)[nH]c2ccc(F)cc12)Cc1ccco1", "solubility kinetic": 3},
      {"smiles": "Cc1ccc(NC(=O)C2CCCN(c3cnccn3)C2)c(C)c1", "note": "(centres undefined)", "solubility kinetic": "> 46.6"},
      {"smiles": "CC1CCc2sc(C(=O)Nc3ccc(C(N)=O)cc3)cc2C1", "note": "(centres undefined)", "solubility kinetic": 3.4},
      {"smiles": "Cc1cccc(-n2c(C)nc3ccc(Cl)cc3c2=O)c1", "solubility kinetic": 22.1},
      {"smiles": "c1ccc2sc(NC3=NCN(CC4CCCO4)CN3)nc2c1", "note": "(centres undefined)", "solubility kinetic": 42.1},
      {"smiles": "O=C(Nc1cccc(S(=O)(=O)NC2=NCCC2)c1)c1ccc(F)cc1", "solubility kinetic": "> 54.2"},
      {"smiles": "COc1cccc2[nH]c(C(=O)NCC3CCCO3)cc12", "note": "(centres undefined)", "solubility kinetic": "> 41.1"},
      {"smiles": "O=C(Nc1cccc(O)c1)c1ccccc1[N+](=O)[O-]", "solubility kinetic": 36.3},
      {"smiles": "COC(=O)CCC(=O)Nc1ccc2oc3c(c2c1)CCCC3", "solubility kinetic": 43.5},
      {"smiles": "CCc1ccc2c(c1)C(O)(CC(=O)c1cccs1)C(=O)N2", "note": "(centres undefined)", "solubility kinetic": "> 45.2"},
      {"smiles": "CCCCCCCn1c(=O)c(C(=O)OC)c(N)c2ccccc21", "solubility kinetic": "< 0.3"},
      {"smiles": "COc1cc(OC)c(C=O)c(OC(=O)N2CCOCC2)c1", "solubility kinetic": "> 44.3"},
      {"smiles": "O=S(=O)(c1ccccc1)c1nc(NC2CC2)sc1Cl", "solubility kinetic": 42.8},
      {"smiles": "Cc1cccc2c1NC(=O)C2=Nc1ccc(Cl)cc1", "solubility kinetic": 4.7},
      {"smiles": "O=C(Nc1ccc(F)cc1)Nc1cccnc1", "solubility kinetic": "> 34.7"},
      {"smiles": "COc1cc(C(=O)N[C@H](C(=O)OCC(=O)NC2CCCCCC2)C(C)C)cc(OC)c1OC", "solubility kinetic": "> 69.7"},
      {"smiles": "Cc1nc(-c2ccccc2)nc2sc(C(=O)c3ccc(F)cc3)c(N)c12", "solubility kinetic": 1.5},
      {"smiles": "Cc1cccc(C(=O)N/C(=C\\c2ccco2)C(=O)N2CCCCCC2)c1", "solubility kinetic": 50.3},
      {"smiles": "N/C(=N\\OC(=O)c1cccnc1)c1ccccc1Cl", "solubility kinetic": 38.9},
      {"smiles": "Cc1ccn2c(=O)cc(C)nc2c1", "solubility kinetic": "> 26.1"},
      {"smiles": "COc1cccc(C(=O)NN2C(=S)N(c3ccccc3)C(=O)C2CC(N)=O)c1", "note": "(centres undefined)", "solubility kinetic": "> 59.8"},
      {"smiles": "COc1ccc(OC)c(/C=C/c2c([N+](=O)[O-])c(=O)n(C)c(=O)n2C)c1", "solubility kinetic": 3.4},
      {"smiles": "COc1cc(S(=O)(=O)NC2CCCC2)c(OC)cc1C", "solubility kinetic": 26.5},
      {"smiles": "CCc1ccc2nc(/N=C(\\N)NC(=O)c3ccccc3)nc(C)c2c1", "solubility kinetic": "< 0.1"},
      {"smiles": "N#C/C(=C\\c1c(F)cccc1Cl)S(=O)(=O)c1ccccn1", "solubility kinetic": 36.2},
      {"smiles": "COc1ccc(Nc2nc(C)nc3c2oc2ccccc23)cc1", "solubility kinetic": 1.7},
      {"smiles": "COc1ccc(OC)c(NC(=O)Nc2ccc3c(c2)OCO3)c1", "solubility kinetic": 2.3}
    ]}
  ]
}
